# Several values for one entry are separate records, joined by “and”; a condition that tells them apart may be missing. Equal values may be shown once.
# How the values were obtained:
# [1] = system: hiPSC-derived 3D retinal organoids; experiment: qPCR of VEGF and ANGPTL4 mRNA in D120 hiPSC-derived retinal organoids in 1% O2; format: cell-based, human; settings: for Vegfa mRNA / Angptl4 mRNA: 12 hours, 20% O2 about 1, replicates; for Vegfa mRNA: Figure 9F; for Angptl4 mRNA: Figure 9G
# Experimental: An hiPSC line derived from CD34^+ cord blood was used in this study (A18945, Thermo Fisher Scientific) ([70]). Undifferentiated hiPSCs and derived retinal organoids were routinely tested for mycoplasma contamination by PCR. Cell culture, retinal differentiation, and organoid formation were conducted as previously described ([71]). Retinal organoids at D120 were used for experiments. […]
# Reverse transcription and quantitative real-time PCR. Total RNA was isolated from cultured cells or retinas with PureLinkTM RNA Mini Kit (Invitrogen #12183025), and cDNA was prepared with MuLV Reverse Transcriptase (Applied Biosystems). Quantitative real-time PCR was performed with Power SYBR Green PCR Master Mix (Applied Biosystems) and MyiQ Real-Time PCR Detection System (Bio-Rad). Normalization was done using cyclophilin A for mouse tissue and human cell lines. Primers are listed in Supplemental Table 2. […]
# HUVECs = experiment: mRNA angiogenesis array (TaqMan Array qPCR) in HUVECs; format: cell-based, human; set-up: ANG,RNASE4, array raw value (Figure 8B, well A10) / GAPDH, array raw value (Figure 8B, well A2) / EDIL3, array raw value (Figure 8B, well B2) / FGF1, array raw value (Figure 8B, well B4) / TIMP2, array raw value (Figure 8B, well E10) / SEMA3F, array raw value (Figure 8B, well E6) / CEACAM1, array raw value (Figure 8B, well F2) / LYVE1, array raw value (Figure 8B, well F6): scale not given here; settings: HUVEC, 1%O2+32-134D
# Experimental: Angiogenesis array. Total RNA was isolated from MIO-MI cells (8 hours) and HUVECs (16 […]
# cDNA was prepared with QuantiTect® Reverse Transcription Kit (Qiagen, Cat# 205311). RT-qPCR assay was performed with pre-configured TaqMan Array 96-Well FAST Plate for human angiogenic gene expression (Applied Biosystems, Inc) following the manufacture’s protocol. Each plate contains pre-defined genes including 18S, GAPDH and HPRT1 endogenous controls.
# TaqMan Array plates were prepared by loading on each well 5 μl of cDNA sample (30 ng) with nuclease-free water and 5 μl of TaqMan™ Fast Advanced Master Mix (Applied Biosystem, Cat# […]
# 4444554). The reaction was performed using the QuantStudio™ 3 Flex Real‐Time PCR System as follows: 2 minutes at 50°C (stage 1); 10 minutes at 95°C (stage 2); 15 seconds at 95°C and 1 minutes at 60°C for 40 cycles (stage 3). The data were analyzed by using HPRT1 as endogenous […]
# The clustering heatmaps were produced with “pheatmap” library in R with scale = row and clustering method = complete.
# HUVEC cells, Euclidean distance was used to quantify the difference in qPCR screening. The Euclidean distance was calculated using “dist” function from R’s default stat library that measures the distance between 2 vectors (i.e., total qPCR expression values in control and treatment). In […]
smiles,measurement,setting,value
"Brc1ccc2c(-c3csc(-c4c[nH]c5c(Br)cccc45)n3)c[nH]c2c1 [32-134D, 4-(6-bromo-1H-indol-3-yl)-2-(7-bromo-1H-indol-3-yl)thiazole]",expression of HIF-regulated vasoactive mediators (in words),"[1]; 1% O2 12 hours, 32-134D",effectively prevented
same,Vegfa mRNA,[1]; 1% O2+32-134D 1μM,2.046 and 2.085 and 1.848
same,Angptl4 mRNA,[1]; 1% O2+32-134D 1μM,5.344 and 5.73 and 5.861
same,Vegfa mRNA,[1]; 1% O2+32-134D 10μM,0.2069 and 0.1725 and 0.1726
same,Angptl4 mRNA,[1]; 1% O2+32-134D 10μM,0.1373 and 0.1287 and 0.1338
same,"18S, array raw value (Figure 8B, well A1)",HUVECs,20.1818
same,"ADAMTS1, array raw value (Figure 8B, well D10)",HUVECs,29.7994
same,"AMOT, array raw value (Figure 8B, well D12)",HUVECs,39.0386
same,"ANG,RNASE4, array raw value (Figure 8B, well A10)",HUVECs,28.1406
same,"ANGPT1, array raw value (Figure 8B, well A11)",HUVECs,30.8384
same,"ANGPT2, array raw value (Figure 8B, well A12)",HUVECs,32.8047
same,"ANGPTL2, array raw value (Figure 8B, well E12)",HUVECs,30.2341
same,"ANGPTL4, array raw value (Figure 8B, well H5)",HUVECs,21.86
same,"CD44, array raw value (Figure 8B, well E1)",HUVECs,23.3811
same,"CDH5, array raw value (Figure 8B, well E2)",HUVECs,24.9237
same,"CEACAM1, array raw value (Figure 8B, well F2)",HUVECs,29.9396
same,"COL4A1, array raw value (Figure 8B, well G2)",HUVECs,30.6479
same,"COL4A2, array raw value (Figure 8B, well G3)",HUVECs,28.7346
same,"COL18A1, array raw value (Figure 8B, well G6)",HUVECs,29.7073
same,"CSF3, array raw value (Figure 8B, well H1)",HUVECs,33.4203
same,"CTGF, array raw value (Figure 8B, well C10)",HUVECs,23.3834
same,"CXCL2, array raw value (Figure 8B, well E3)",HUVECs,30.6168
same,"CXCL10, array raw value (Figure 8B, well D5)",HUVECs,36.21
same,"EDIL3, array raw value (Figure 8B, well B2)",HUVECs,26.4682
same,"EPHB2, array raw value (Figure 8B, well B3)",HUVECs,28.307
same,"FGF1, array raw value (Figure 8B, well B4)",HUVECs,29.8889
same,"FGF2, array raw value (Figure 8B, well B5)",HUVECs,30.0294
same,"FIGF, array raw value (Figure 8B, well F12)",HUVECs,33.3841
same,"FLT1, array raw value (Figure 8B, well E5)",HUVECs,30.21
same,"FN1, array raw value (Figure 8B, well G7)",HUVECs,28.5669
same,"FOXC2, array raw value (Figure 8B, well G1)",HUVECs,27.8513
same,"FST, array raw value (Figure 8B, well B7)",HUVECs,31.5936
same,"GAPDH, array raw value (Figure 8B, well A2)",HUVECs,20.3521
same,"GRN, array raw value (Figure 8B, well H2)",HUVECs,22.2393
same,"GUSB, array raw value (Figure 8B, well A4)",HUVECs,25.0498
same,"HEY1, array raw value (Figure 8B, well F3)",HUVECs,34.3049
same,"HPRT1, array raw value (Figure 8B, well A3)",HUVECs,25.0367
same,"HSPG2, array raw value (Figure 8B, well G5)",HUVECs,27.52
same,"IFNB1, array raw value (Figure 8B, well D3)",HUVECs,35.432
same,"IL8, array raw value (Figure 8B, well B9)",HUVECs,26.4133
same,"IL12A, array raw value (Figure 8B, well D6)",HUVECs,34.4259
same,"ITGA4, array raw value (Figure 8B, well D2)",HUVECs,28.3072
same,"ITGAV, array raw value (Figure 8B, well F4)",HUVECs,26.1181
same,"ITGB3, array raw value (Figure 8B, well H6)",HUVECs,25.3974
same,"KDR, array raw value (Figure 8B, well F10)",HUVECs,30.1984

# — article PMC10313368 (The Journal of Clinical Investigation, 2023)
